Measurements as given in publication PMC3793977, “High-Throughput Screening (HTS) and Hit Validation to Identify Small Molecule Inhibitors with Activity against NS3/4A proteases from Multiple Hepatitis C Virus Genotypes” (PLoS ONE, 2013).
Several values for one entry are separate records, joined by “and”; a condition that tells them apart may be missing. Identical values can stand only once.

Tests used:
[1] = biological target: T1, full-length NS3/4A protease (genotype 1b) (Hepatitis C virus genotype 1b, UniProt Q9WMX2); experiment: biochemical; settings: purified full-length NS3/4A, genotype 1b wild-type; read-out: IC50 Full-length NS3/4A
T1 construct: wild-type HCV NS3 (HCV polyprotein residues 1027–1657); His-tag (N); made in house
Procedure: All assays were done in duplicate in black 384-well plates (Matrix Technologies). […] 200 nL of 10 mM compound (50 µM final concentrations) were then added and incubated for 5 minutes. Enzyme reactions were initiated with 10 µL of substrate Ac-DE-Dap(QXL520)-EE-Abu-ψ-[COO]AS-C(5-FAMsp)-NH2 (Anaspec) (1 µM final concentration), incubated for 6 minutes, and quenched by 10 µL of 10% SDS as a stop solution. Fluorescence intensity was monitored with a POLARstar OPTIMA microplate reader (BMG LABTECH). Each plate contained a total of 32 positive and 32 negative controls.
A series of compound concentrations (0 to 200 µM final concentration at 2-fold serial dilution) in 100% DMSO were prepared in a 384-well plate. 20 µL of enzyme solution was distributed to wells, and 0.5 µL of varying concentration of compounds were added and incubated for 5 minutes. The enzyme reaction was initiated by adding 5 µL of the substrate, and its activity was continuously monitored for 6 minutes. The IC50 values were calculated by fitting with the Hill equation (1), with OriginPro 8.5 (OriginLab, Inc.) where y is percent inhibition, x is inhibitor concentration, n is the slope of the concentration–response curve (Hill slope), and Vmax is maximal inhibition from two to four independent assays. [drawing 1] (1)

[2] = biological target: T2, full-length NS3/4A (Hepatitis C virus genotype 1b, UniProt Q9WMX2); experiment: SPR binding assay (dissociation equilibrium constant KD); settings: for SPR binding to NS3/4A, double referenced: double referenced with blank and unrelated reference protein
T2 construct: wild-type HCV NS3 (HCV polyprotein residues 1027–1657); His-tag (N); made in house
Procedure: The full-length NS3/4A enzyme was prepared in a storage buffer (50 mM HEPES, pH 7.6, 500 mM NaCl, 1 mM DTT, 0.2% Triton X-100, and 20% glycerol) and immobilized on a CM5 sensor chip using standard amine-coupling at 25°C with running buffer HBS-P (10 mM HEPES, 150 mM NaCl, 0.05% surfactant P-20, pH 7.4) using a Biacore T100 instrument. Flow channels 1 and 3 were activated by 1-ethyl-3-(3-dimethylaminopropyl) carbodiimide hydrocholoride (EDC)/N-hydroxy succinimide (NHS) mixture, and the activated surface was blocked by ethanolamine (pH 8.5) as controls. The NS3/4A enzyme was diluted in 10 mM sodium acetate (pH 5.0), and immobilized to flow channel 4 after sensor surface activation with EDC/NHS with a 7 min injection followed by ethanolamine blocking on unoccupied surface area. NS3/4A immobilization level was ∼8,500 response units (RU). An unrelated reference protein (92 kDa) was also immobilized to flow channel 2 as another control to be compared with NS3/4A (74.6 kDa). Fifteen initial hit compounds were prepared as 10 mM DMSO stock solutions. Compound solutions with a series of increasing concentrations (0–200 µM at 1.5-fold dilution) were applied to all four channels at a 10 µL/min flow rate at 25°C. Sensorgrams were analyzed using Biaevaluation software 2.0.3, and response unit difference (ΔRU) values at each concentration were measured during the equilibration phase. Data were either single referenced with a blank (enthanolamine) or double referenced with both blank and reference protein RU values. SigmaPlot 11.0 was used to fit the data to a single rectangular hyperbolic curve to determine KD values. The hyperbola function, y = ymax·x/(KD+x), was used to plot response units and corresponding concentration, where y is the response, ymax is the maximum response, and x is the compound concentration.

[3] = biological target: T3, full-length NS3/4A enzyme complex (Hepatitis C virus genotype 1b, UniProt Q9WMX2); experiment: Reversibility of inhibition by dilution; format: biochemical; settings: dilution 25-fold and 50-fold
T3 construct: wild-type HCV NS3 (HCV polyprotein residues 1027–1657); His-tag (N); made in house
Procedure: The reversibility of hit compounds was determined by dilution. The full-length NS3/4A enzyme complex was prepared as 20-fold (200 nM) of the assay concentration and was incubated with screened compounds at 20-fold IC50 value or slightly higher concentration for 30 minutes at room temperature in the same assay condition as the primary screen in a final volume of 100 µL. The concentration of enzyme and testing compound was optimized to yield at least 95% inhibition before dilution. The NS3/4A enzyme with the same volume of DMSO in place of each compound was also prepared as a control. NS3/4A activity was measured in the same way as the IC50 measurements. Then enzyme-inhibitor solution was diluted 25-fold and 50-fold and incubated for 30 minutes before measuring the percent recovery of the enzyme activity. All reversibility assays were done in triplicate.

[4] = biological target: T4, NS3/4A protease genotype 2a (Hepatitis C virus genotype 2a, UniProt Q99IB8); experiment: Inhibition assay with NS3/4A from genotype 2a; format: biochemical; settings: IC50 Purified NS3/4A Sub-genotype 2a, genotype 2a
T4 construct: against the NS3/4A protease domains from three additional HCV genotypes (1a, 2a, and 4d); purchased Anaspec
Procedure: (§1) The inhibitory activity of the final hit compounds from HTS were tested against three other HCV genotypes (1a, 2a, and 4d), along with a control (genotype 1b) and five NS3 drug-resistant mutants. Eight full-length NS3 mutants (V36M, R155K, A156T, A156S, 156V, V36A, T54A, and R155T) were generated by mutagenesis and purified, and the three HCV NS3/4A protease genotypes were purchased from Anaspec. Unfortunately the enzyme activities of the three mutants V36A, T54A, and R155T were much less than that of the rest of the mutants and were insufficient for testing, therefore mutant studies were done with the five active mutants. Continuous kinetic assays were performed against all hit compounds in the same way as the wild-type NS3/4A. As a control, full-length NS3/4A (genotype 1b) was tested under the same conditions for direct comparison for each plate.

[5] = biological target: T5, full-length NS3/4A genotype 1b mutant A156V (Hepatitis C virus genotype 1b, UniProt Q9WMX2, A1182V); experiment: Inhibition assay with drug-resistant mutant A156V; format: biochemical; settings: genotype 1b full-length mutant
T5 construct: wild-type HCV NS3 (HCV polyprotein residues 1027–1657); His-tag (N); made in house
Procedure: (§2) The full-length genes of wild-type HCV NS3 (HCV polyprotein residues 1027–1657) with a his-tag at the N-terminus and NS4A (residues 1658–1711) with no tag were cloned, co-expressed, and purified as described. Eight NS3 drug resistant mutants (V36M, V36A, T54A, R155K, R155T, A156T, A156S, and 156V) were generated by mutagenesis using full-length, wild-type NS3-containing recombinant plasmid (pETDuet-1/FL NS3/4A) as a template. The over-expression and purification of all mutants were performed by the same method as the wild-type with minor modifications.
as §1, with “As a control, full-length NS3/4A (genotype 1b) was tested under the same conditions for direct comparison for each plate.” left out

[6] = biological target: T6, Chymotrypsin (Homo sapiens, UniProt P17538); experiment: Inhibitor selectivity assay, chymotrypsin (fluorometric); format: biochemical; settings: human chymotrypsin
T6 construct: purchased Sigma
T6 sequence (P17538 19-263): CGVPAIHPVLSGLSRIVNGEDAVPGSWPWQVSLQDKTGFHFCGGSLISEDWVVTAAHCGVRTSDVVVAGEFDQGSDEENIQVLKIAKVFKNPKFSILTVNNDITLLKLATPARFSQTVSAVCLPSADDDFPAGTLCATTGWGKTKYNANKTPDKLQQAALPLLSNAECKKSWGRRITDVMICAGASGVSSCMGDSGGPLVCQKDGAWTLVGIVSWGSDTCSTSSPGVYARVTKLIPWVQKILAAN
Procedure: (§3) To test for selectivity, two human serine proteases, Trypsin and Chymotrypsin (Sigma), were tested with the top two hit compounds from HTS using a fluorometric assay. The fluorogenic substrates used in this study were N-benzoyl-L-Arg-7-amido-4-methylcoumarin (Sigma) and N-succinyl-Ala-Ala-Phe-7-amido-4- methylcoumarin (Sigma) for trypsin and chymotrypsin, respectively. All assays were performed in 384-well black plates (Corning) in a total volume of 24 µL of PBS (pH 7.4) buffer containing 0.01% Triton, 0.1 mg/mL BSA, and 2 mM GSH in triplicate. A series of compound concentrations (0 to 200 µM final concentration at 2-fold serial dilution) in 100% DMSO was prepared in a 384-well plate. 20 µL of trypsin (0.01 mg/mL) and chymotrypsin (0.0001 mg/mL) solutions were distributed into wells, and 0.5 µL of varying concentration of compounds were added and incubated for 10 minutes. The enzyme reaction was initiated by adding 5 µL of the substrate (50 µM final concentration), and fluorescence intensity was continuously monitored at excitation/emission wavelengths of 350 nm/460 nm for 10 minutes.

[7] = biological target: T2, full-length NS3/4A; experiment: Type (mechanism) of enzyme inhibition, kinetic analysis; format: biochemical
Procedure: Full-length NS3/4A activity was monitored in the same way as the primary screening with varying concentration of both inhibitor compounds and substrate (0–8 µM). The concentration of compounds varied from 0 to 20 µM at 1.5-fold dilution factor.

[8] = biological target: T7, Trypsin (Homo sapiens, UniProt P07477); experiment: Inhibitor selectivity assay, trypsin (fluorometric); format: biochemical
T7 construct: purchased Sigma
Procedure: as §3

[9] = biological target: T8, full-length NS3/4A genotype 1b mutant A156T (Hepatitis C virus genotype 1b, UniProt Q9WMX2, A1182T); experiment: Inhibition assay with drug-resistant mutant A156T; format: biochemical; settings: in words
T8 construct: wild-type HCV NS3 (HCV polyprotein residues 1027–1657); His-tag (N); made in house
Procedure: as §2
as §1, with “As a control, full-length NS3/4A (genotype 1b) was tested under the same conditions for direct comparison for each plate.” left out

[10] = biological target: T9, full-length NS3/4A genotype 1b mutant A156S (Hepatitis C virus genotype 1b, UniProt Q9WMX2, A1182S); experiment: Inhibition assay with drug-resistant mutant A156S; format: biochemical; settings: in words
T9 construct: wild-type HCV NS3 (HCV polyprotein residues 1027–1657); His-tag (N); made in house
Procedure: as §2
as §1, with “As a control, full-length NS3/4A (genotype 1b) was tested under the same conditions for direct comparison for each plate.” left out

[11] = biological target: T10, NS3/4A protease genotype 1a (Hepatitis C virus genotype 1a, UniProt P27958); experiment: Inhibition assay with NS3/4A from genotype 1a; format: biochemical; settings: IC50 NS3/4A genotype 1a
T10 construct: against the NS3/4A protease domains from three additional HCV genotypes (1a, 2a, and 4d); purchased Anaspec
Procedure: as §1

[12] = biological target: NS3/4A protease genotype 4d (Hepatitis C virus subtype 4d, UniProt Q1ZZ56); experiment: Inhibition assay with NS3/4A from genotype 4d; format: biochemical
Procedure: as §1

[13] = biological target: T11, full-length NS3/4A genotype 1b mutant R155K (Hepatitis C virus genotype 1b, UniProt Q9WMX2, R1181K); experiment: Inhibition assay with drug-resistant mutant R155K; format: biochemical; settings: in words
T11 construct: wild-type HCV NS3 (HCV polyprotein residues 1027–1657); His-tag (N); made in house
Procedure: as §2
as §1, with “As a control, full-length NS3/4A (genotype 1b) was tested under the same conditions for direct comparison for each plate.” left out

[14] = biological target: T12, full-length NS3/4A genotype 1b mutant V36M (Hepatitis C virus genotype 1b, UniProt Q9WMX2, V1062M); experiment: Inhibition assay with drug-resistant mutant V36M; format: biochemical; settings: genotype 1b full-length mutant
T12 construct: wild-type HCV NS3 (HCV polyprotein residues 1027–1657); His-tag (N); made in house
Procedure: as §2
as §1, with “As a control, full-length NS3/4A (genotype 1b) was tested under the same conditions for direct comparison for each plate.” left out

| SMILES | IC50 [1] [µM] | Kd ([2]; SPR, 25°C, single rectangular hyperbolic fit) [µM] | SPR binding to NS3/4A, double referenced [2] | reversibility of inhibition [3] | IC50 [4] [µM] | IC50 [5] [µM] | IC50 [6] [µM] | Ki ([7]; competitive model, with respect to substrate) [µM] | mechanism of inhibition ([7]; with respect to the substrate, best fit model) | inhibition at 100 µM ([8]; 100 µM compound, read-out: Trypsin % Inh at 100 µM) [%] | IC50 ([8]; human trypsin) [µM] | activity against mutant A156T compared with wild-type [9] | activity against mutant A156S compared with wild-type [10] | IC50 [11] | IC50 [12] [µM] | activity against mutant R155K compared with wild-type [13] | IC50 [14] [µM] |
| --- | --- | --- | --- | --- | --- | --- | --- | --- | --- | --- | --- | --- | --- | --- | --- | --- | --- |
| CC1(C)CCc2cc(/C=C(\C#N)C(=O)c3cccc(C(F)(F)F)c3)ccc2O1 [Compound 6] | 7.6 ± 0.6 | 8.3 ± 1.9 | specific binding | reversible | – | – | – | – | – | – | – | – | – | – | – | – | – |
| CC(C)C(=O)N1CCc2ccc(NC(=O)COc3ccc(F)cc3)cc2C1 [Compound 13] | 20.2 ± 2.2 | – | specific binding | – | < 20 | < 20 | 110 ± 32 | 19.1 | competitive inhibitors | 5.1 | > 100 | decreased in activity | decreased in activity | 1.7 µM and < 20 µM | < 20 | completely lost activity | < 20 |
